Reference: ChEMBL document CHEMBL1275474, “In vitro activity of tigecycline against multidrug-resistant Acinetobacter baumannii and selection of tigecycline-amikacin synergy” (2008)
Values after ≈ are worked out from the molar mass of the structure shown. Active and inactive are the calls of the source. The rule behind the calls is not given here.

Assays:
Acinetobacter baumannii [1] = experiment: Antimicrobial activity against Acinetobacter baumannii by microdilution method; format: functional
Acinetobacter baumannii [2] = experiment: Antimicrobial activity against Acinetobacter baumannii assessed as susceptible isolates by microdilution method; format: functional
Acinetobacter baumannii [3] = experiment: Antimicrobial activity against Acinetobacter baumannii isolate 1198 by microdilution method; format: functional
Acinetobacter baumannii [4] = experiment: Bactericidal activity against Acinetobacter baumannii isolate 1198 at 16 ug/ml after 24 hrs by time kill analysis; format: functional, organism-based
Acinetobacter baumannii [5] = experiment: Antimicrobial activity against Acinetobacter baumannii isolate 1826 by microdilution method; format: functional
Acinetobacter baumannii [6] = experiment: Antimicrobial activity against Acinetobacter baumannii isolate 853 by microdilution method; format: functional
Acinetobacter baumannii [7] = experiment: Antimicrobial activity against Acinetobacter baumannii by microdilution method in presence of beta-lactamase inhibitor Tazobactam; format: functional
Acinetobacter baumannii [8] = experiment: Bactericidal activity against Acinetobacter baumannii isolate 853 at 0.5 ug/ml at 6 hrs by time kill analysis; format: functional, organism-based
Acinetobacter baumannii [9] = experiment: Antimicrobial activity against Acinetobacter baumannii by microdilution method in presence of beta-lactamase inhibitor Sulbactam; format: functional
Acinetobacter baumannii [10] = experiment: Bactericidal activity against Acinetobacter baumannii isolate 1826 at 2 ug/ml after 4 hrs by time kill analysis; format: functional, organism-based
Acinetobacter baumannii [11] = experiment: Bactericidal activity against Acinetobacter baumannii isolate 1826 at 8 ug/ml after 4 hrs by time kill analysis; format: functional, organism-based
Acinetobacter baumannii [12] = experiment: Bactericidal activity against Acinetobacter baumannii isolate 853 at 0.06 ug/ml at 6 hrs by time kill analysis; format: functional, organism-based
Acinetobacter baumannii [13] = experiment: Bactericidal activity against Acinetobacter baumannii isolate 1198 at 1 ug/ml after 24 hrs by time kill analysis; format: functional, organism-based
Acinetobacter baumannii [14] = experiment: Bactericidal activity against Acinetobacter baumannii isolate 1198 at 2 ug/ml after 24 hrs by time kill analysis; format: functional, organism-based
Acinetobacter baumannii [15] = experiment: Bactericidal activity against Acinetobacter baumannii isolate 1826 at 8 ug/ml up to 4 hrs by time kill analysis; format: functional, organism-based
Acinetobacter baumannii [16] = experiment: Bactericidal activity against Acinetobacter baumannii isolate 1826 at 2 ug/ml up to 4 hrs by time kill analysis; format: functional, organism-based

Compound	MIC50 (Acinetobacter baumannii [1]) [µg/mL]	MIC90 (Acinetobacter baumannii [1]) [µg/mL]	Activity (Acinetobacter baumannii [2]) [%]	MIC (Acinetobacter baumannii [3]) [µg/mL]	MIC (Acinetobacter baumannii [5]) [µg/mL]	MIC (Acinetobacter baumannii [6]) [µg/mL]	also measured
NCC[C@H](O)C(=O)N[C@@H]1C[C@H](N)[C@@H](O[C@H]2O[C@H](CN)[C@@H](O)[C@H](O)[C@H]2O)[C@H](O)[C@H]1O[C@H]1O[C@H](CO)[C@@H](O)[C@H](N)[C@H]1O [AMIKACIN]	8 (≈ 13.7 µM)	> 128	53	> 128	2 (≈ 3.42 µM)	≤ 0.5	Activity (Acinetobacter baumannii [4]): inactive
C[C@H]1COc2c(N3CCN(C)CC3)c(F)cc3c(=O)c(C(=O)O)cn1c23.C[C@H]1COc2c(N3CCN(C)CC3)c(F)cc3c(=O)c(C(=O)O)cn1c23.O [LEVOFLOXACIN]	8	16	35	–	–	–	–
CCN1CCN(C(=O)N[C@@H](C(=O)N[C@@H]2C(=O)N3[C@@H]2SC(C)(C)[C@@H]3C(=O)O)c2ccccc2)C(=O)C1=O [PIPERACILLIN]	–	–	9	–	–	–	MIC50 (Acinetobacter baumannii [7]): > 128 µg/mL; MIC90 (Acinetobacter baumannii [7]): > 128 µg/mL
POLYMYXIN B	1	2	99	1	2	1	Activity (Acinetobacter baumannii [8]): inactive
CC1(C)S[C@@H]2[C@H](NC(=O)[C@H](N)c3ccccc3)C(=O)N2[C@H]1C(=O)O [AMPICILLIN]	–	–	31	–	–	–	MIC50 (Acinetobacter baumannii [9]): 16 µg/mL; MIC90 (Acinetobacter baumannii [9]): 128 µg/mL
C[C@@H](O)[C@H]1C(=O)N2C(C(=O)O)=C(SCCNC=N)C[C@H]12 [IMIPENEM ANHYDROUS]	1 (≈ 3.34 µM)	16 (≈ 53.4 µM)	86	–	–	–	–
CN(C)c1ccc(O)c2c1C[C@H]1C[C@H]3[C@H](N(C)C)C(O)=C(C(N)=O)C(=O)[C@@]3(O)C(O)=C1C2=O [MINOCYCLINE]	2 (≈ 4.37 µM)	8 (≈ 17.5 µM)	78	–	–	–	–
GENTAMICIN	> 32	> 32	16	–	–	–	–
CC(C)(O/N=C(\C(=O)N[C@@H]1C(=O)N2C(C(=O)[O-])=C(C[n+]3ccccc3)CS[C@H]12)c1csc(N)n1)C(=O)O [CEFTAZIDIME]	64 (≈ 117 µM)	> 64	17	–	–	–	–
CN(C)c1cc(NC(=O)CNC(C)(C)C)c(O)c2c1C[C@H]1C[C@H]3[C@H](N(C)C)C(O)=C(C(N)=O)C(=O)[C@@]3(O)C(O)=C1C2=O [TIGECYCLINE]	–	–	–	4 (≈ 6.83 µM)	64 (≈ 109 µM)	0.12 (≈ 0.205 µM)	Activity (Acinetobacter baumannii [10]): inactive; Activity (Acinetobacter baumannii [11]): inactive; Activity (Acinetobacter baumannii [12]): inactive; MIC (Acinetobacter baumannii [1]): 0.06 µg/mL (≈ 0.102 µM); Activity (Acinetobacter baumannii [13]): inactive; Activity (Acinetobacter baumannii [14]): inactive; Activity (Acinetobacter baumannii [15]): Active; Activity (Acinetobacter baumannii [16]): Active
